The numbers were not newly measured in US20110256058A1, “Novel Peptides and Uses Thereof” (UNIVERSITY OF SOUTHERN CALIFORNIA, priority 2007, published 2011), which cites them from elsewhere.

This data set deals with α2 aI domain. As to conditions: literature; for conformational effect on α2 receptor: open conformation of α2 receptor.

As for “CARKKHDC [RKKH peptide of structural studies in the literature]”, the “conformational effect on α2 receptor” value is given as “induce conformational change”.

As for “CTRKKHDC [RKKH peptide of structural studies in the literature]”, the “conformational effect on α2 receptor” value is reported as “induce conformational change”.

For the substance CTRKKHDNAQC, the “binding to aI domain” value was “binds to aI domain”; the “inhibition of aI domain / α2β1 binding to collagen and laminin” value was “prevents its binding to collagen (type I, IV) and laminin (type 1)”.

As to RSECD, the “inhibition of aI domain / α2β1 binding to collagen and laminin” value is “fails to inhibit collagen binding”.
